ChEMBL document CHEMBL5620390, “A novel multifunctional mitochondrion-targeting NIR fluorophore probe inhibits tumour proliferation and metastasis through the PPARγ/ROS/β-catenin pathway” (Eur J Med Chem, 2023)
Activity calls are given as the source filed them. The rule behind the calls is not given here.

Legend:
B16-F10 [1] = assay: Induction of mitochondrial damage in mouse B16-F10 cells assessed as mitochondrial vacuolation at 2.5 uM incubated for 24 hrs by TEM analysis; assay type: functional, cell-based
[2] = Drug uptake in human A549 cells assessed as fluorescence intensity at 2.5 uM incubated for 1 hr by confocal laser scanning microscopic analysis; assay type: ADME, cell-based; conditions: a549, 1 h
A-375 [3] = assay: Antiproliferative activity against human A-375 cells assessed as inhibition of cell growth at 0.04 to 10 uM by MTT assay; assay type: functional, cell-based; conditions: dose 0.04-10 µM, time 24-72 hrs, TDE = time-dependent effect
B16-F10 [4] = assay: Antitumor activity against mouse B16-F10 cells inoculated in mouse assessed as reduction in tumor metastasis at 2 mg/kg, ip administered every other day and measured on day 18 by H and E staining based assay; assay type: functional, organism-based; conditions: time 18.0 day
B16-F10 [5] = assay: Induction of ROS generation in mouse B16-F10 cells assessed as reduction in SOD2 expression level at 1.25 uM preincubated with rosiglitazone for 24 hrs followed by compound addition for 24 hrs; assay type: functional, cell-based
A-375 [6] = assay: Inhibition of Wnt/beta-catenin signaling in human A-375 cells assessed as reduction in beta-catenin expression at 1.25 uM incubated for 24 hrs; assay type: cell-based
A-375 [7] = assay: Induction of cell cycle arrest in human A-375 cells assessed as P27 protein accumulation at 0.31 to 1.25 uM after 24 hrs by Western blotting analysis; assay type: functional, cell-based; conditions: dose 0.31-1.25 µM
A-375 [8] = assay: Induction of ROS generation in human A-375 cells assessed as reduction in PPARgamma expression level at 1.25 uM incubated for 24 hrs; assay type: functional, cell-based
B16-F10 [9] = assay: Induction of cell cycle arrest in mouse B16-F10 cells assessed as accumulation of cells at G0/G1 phase incubated for 24 hrs by PI staining based flow cytometry analysis (reference value: 10.93%); assay type: functional
A-375 [10] = assay: Antitumor activity against human GFP-stained A-375 cells inoculated in zebrafish assessed as reduction in tumor growth by measuring tumor fluorescence intensity; assay type: functional, cell-based
B16-F10 [11] = assay: Antitumor activity against mouse B16-F10 cells inoculated in mouse assessed as reduction in tumor invasion at 2 mg/kg, ip administered every other day and measured on day 18 by H and E staining based assay; assay type: functional, organism-based; conditions: time 18.0 day
B16-F10 [12] = assay: Induction of ROS generation in mouse B16-F10 cells assessed as reduction in GPX1 expression level at 0.31 to 1.25 uM incubated for 24 hrs; assay type: functional, cell-based; conditions: dose 0.31-1.25 µM
B16-F10 [13] = assay: Antitumor activity against mouse B16-F10 cells inoculated in C57BL/6J mouse assessed as reduction in tumor weight at 0.5 to 2 mg/kg, ip administered every other day and measured on day 22; assay type: functional, organism-based; conditions: dose 0.5-2 mg/kg, time 22.0 day
[14] = Drug uptake in mouse B16-F10 cells mitochondria at 2.5 uM incubated for 25 mins by mito-tracker green dye based confocal laser scanning fluorescence microscopy analysis; assay type: ADME; conditions: b16-f10, 25 min
B16-F10 [15] = assay: Inhibition of tumor metastasis in mouse B16-F10 cells assessed as reduction in wound healing after 24 hrs; assay type: functional, cell-based; conditions: dose 0.08-1.25 µM
B16-F10 [16] = assay: Inhibition of ROS generation in mouse B16-F10 cells at 1.25 uM preincubated with rosiglitazone for 2 hrs followed by wash out and compound addition for 1 hr by DCFH-DA staining based inverted fluorescence microscopic analysis; assay type: functional; design: scale not given: the % may be the effect or the level left
B16-F10 [17] = assay: Induction of cell cycle arrest in mouse B16-F10 cells assessed as reduction in Cdk2 protein level at 0.31 to 1.25 uM after 24 hrs by Western blotting analysis; assay type: functional, cell-based; conditions: dose 0.31-1.25 µM
A-375 [18] = assay: Inhibition of Wnt/beta-catenin signaling in human A-375 cells assessed as reduction in TCF4 expression at 1.25 uM incubated for 24 hrs; assay type: cell-based
B16-F10 [19] = assay: Antitumor activity against mouse B16-F10 cells inoculated in C57BL/6J mouse assessed as reduction in tumor growth at 0.5 to 2 mg/kg, ip administered every other day and measured on day 22; assay type: functional, organism-based; conditions: dose 0.5-2 mg/kg, time 22.0 day
A-375 [20] = assay: Induction of cell cycle arrest in human A-375 cells assessed as accumulation of cells at G0/G1 phase incubated for 24 hrs by PI staining based flow cytometry analysis (reference value: 12.05%); assay type: functional
A-375 [21] = assay: Induction of ROS generation in human A-375 cells assessed as reduction in GPX1 expression level at 0.31 to 1.25 uM incubated for 24 hrs; assay type: functional, cell-based; conditions: dose 0.31-1.25 µM
B16-F10 [22] = assay: Inhibition of Wnt/beta-catenin signaling in mouse B16-F10 cells assessed as reduction in TCF4 expression at 1.25 uM incubated for 24 hrs; assay type: cell-based
A-375 [23] = assay: Antiproliferative activity against human A-375 cells assessed as inhibition of cell growth at 0.31 uM after 72 hrs by MTT assay; assay type: functional; design: scale not given: the % may be the effect or the level left
B16-F10 [24] = assay: Antitumor activity against mouse B16-F10 cells inoculated in C57BL/6J mouse assessed as reduction in PPARgamma expression at 0.5 to 2 mg/kg, ip administered every other day and measured on day 22 by immunohistochemistry analysis; assay type: functional, organism-based; conditions: dose 0.5-2 mg/kg, time 22.0 day

CC[N+]1=C(/C=C/C2=C(Cl)C(=C/C=C3\N(CCCCCC(=O)O/C(=N/C4CCCCC4)NC4CCCCC4)c4ccccc4C3(C)C)/CCC2)C(C)(C)c2ccccc21.[Br-]
Activity (B16-F10 [1]): Active
Drug uptake [2]: Active
Activity (A-375 [3]): Tde
Activity (B16-F10 [4]): Active
Activity (B16-F10 [5]): inactive
inhibition (A-375 [6]): Active
Activity (A-375 [7]): Active
Activity (A-375 [8]): Active
Activity (B16-F10 [9]): 40.75%
Activity (A-375 [10]): Active
Activity (B16-F10 [11]): Active
Activity (B16-F10 [12]): Active
Activity (B16-F10 [13]): Active
Drug uptake [14]: Active
inhibition (B16-F10 [15]): Dose-Dependent Effect
Activity (B16-F10 [16]): >50%
Activity (B16-F10 [17]): Active
inhibition (A-375 [18]): Active
Activity (B16-F10 [19]): Active
Activity (A-375 [20]): 45.5%
Activity (A-375 [21]): Active
inhibition (B16-F10 [22]): Active
Activity (A-375 [23]): 70%
Activity (B16-F10 [24]): Active
